The source of these data is paper PMC3814362 (Nucleic Acids Research, 2013).

One experiment concerns the target T1, HflX-ND1 (Escherichia coli, UniProt P25519).
T1 sequence (P25519 1-120): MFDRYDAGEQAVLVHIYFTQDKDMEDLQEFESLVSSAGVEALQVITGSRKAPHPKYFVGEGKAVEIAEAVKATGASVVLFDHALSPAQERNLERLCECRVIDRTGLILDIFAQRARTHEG
Put plainly: mant fluorescence emission. The experiment is classed as binding. Conditions: labelled compound; 5 µM protein, 1 µM mant-ATP, pH 8.0, 5 mM MgCl2.

For experiment [1], the target named is T2, HflX-FL; HflX-WT (EcHflX) (Escherichia coli, UniProt P25519).
T2 sequence (P25519 1-426): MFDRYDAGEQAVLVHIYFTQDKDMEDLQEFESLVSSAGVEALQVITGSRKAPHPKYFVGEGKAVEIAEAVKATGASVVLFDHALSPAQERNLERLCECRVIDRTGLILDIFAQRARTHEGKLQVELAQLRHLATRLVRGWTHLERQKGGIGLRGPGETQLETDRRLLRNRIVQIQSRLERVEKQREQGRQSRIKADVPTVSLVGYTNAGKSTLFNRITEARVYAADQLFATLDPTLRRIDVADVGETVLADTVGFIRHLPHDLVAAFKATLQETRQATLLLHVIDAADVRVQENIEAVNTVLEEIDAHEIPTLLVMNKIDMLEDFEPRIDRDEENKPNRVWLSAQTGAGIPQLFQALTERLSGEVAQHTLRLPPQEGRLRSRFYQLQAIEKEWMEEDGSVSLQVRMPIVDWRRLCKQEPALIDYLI
As to the kind of experiment: mant fluorescence emission. The experiment is classed as binding. As to conditions: labelled compound; 5 µM protein, 1 µM mant-ATP, pH 8.0, 5 mM MgCl2.

With `CNc1ccccc1C(=O)O[C@H]1[C@@H](O)[C@H](n2cnc3c(N)ncnc32)O[C@@H]1COP(=O)(O)OP(=O)(O)OP(=O)(O)O` [mant-ATP], the “mant fluorescence emission (ex 355 nm)” value on HflX-ND1 was “HflX-ND1, like the full-length protein, binds mant-ATP”; in experiment [1], “HflX-ND1, like the full-length protein, binds mant-ATP”.
